Assay results published in patent US20250114369A1, “COMPOUNDS AND METHODS FOR TREATMENT OF VIRAL INFECTIONS” (Gilead Sciences, Inc., priority 2023, published 2025).
≈ marks a conversion by molar mass, not a printed value.

What was measured:
[1] = tested on: Caco-2 cells (clone C2BBel); test: CACO-2 permeability; format: in vitro ADME; settings: donor pH 6.5, receiver pH 7.4; for DM Caco2 A to B: forward (A to B); for DM Caco2 B to A: reverse (B to A)
Procedure: Pre-plated Caco-2 cells (clone C2BBel) were obtained from Sigma-Aldrich, Inc. (Atlanta, GA). Cell monolayers were grown to confluence on collagen-coated, microporous, polycarbonate membranes in 24-well transwell plates for 21 days. The permeability assay buffer in donor wells was Hanks' balanced salt solution (HBSS) containing 10 mM HEPES and 15 mM glucose at a pH of 6.5 containing 200 μM BNPP. The receiver wells used HBSS buffer containing 10 mM HEPES and 15 mM glucose at a pH of 7.4 and supplemented with 1% BSA. After an initial equilibration with transport buffer, TEER values were read to test membrane integrity. The experiment was started by the addition of buffers containing test compounds, 200 μl and 1000 μl in the apical and basolateral chamber, respectively. At 0- and 2-hour post dose, 10 μL was sampled from donor compartment and was immediately diluted in 190 μL of 20% methanol. At 1 and 2 hours post dose, 100 μl of solution was taken from the receiver compartments and was immediately diluted in 100 μl of 20% methanol. Removed buffer was replaced with fresh buffer and a correction was applied to all calculations for the removed material. Each compound was tested in 2 separate replicate wells for each condition. All samples were then extracted with 400 μl 100% acetonitrile with internal standard to precipitate protein. Cells were dosed on the apical or basolateral side to determine forward (A to B) and reverse (B to A) permeability. To test for non-specific binding and compound instability, the total amount of drug was quantitated at the end of the experiment and compared to the material present in the original dosing solution as a percent recovery. Formation of the parent compound (GS-441524; Reference Compound A) was monitored in assay wells dosed with the prodrug. Samples were analyzed by LC-MS/MS.

physchem = format: physicochemical; settings: pH 7, aqueous buffer, thermodynamic from solid
Procedure: The aqueous solubility of compounds over a time of 24 hours was assessed. Solubility was determined at ambient temperature in a 50 mM phosphate buffered pH7 solution with 150 mM NaCl (to achieve isotonicity). Solids were added to the buffered solution in 1.5-mL Eppendorf tubes, vortexed for 1 minute, then agitated for 24 hours in an Eppendorf ThermoMixer C. To determine concentration in solution, the suspensions were centrifuged for 15 min at 15,000 rpm. Supernatants were diluted to a volume of 1 mL with 30:70 v/v acetonitrile:water. All diluted supernatants were analyzed by UPLC using a Waters Acquity UPLC with a PDA UV detector.

[2] = format: in vitro ADME; settings: 2 μM
Procedure: Duplicate aliquots of plasma were warmed to 37° C. and the metabolic reactions initiated by the addition of test compound (6 μL of 0.1 mM DMSO stock) or plasma stability standard (GS-7340) to obtain a final substrate concentration of 2 μM. At 0.05, 0.5, 1, 2, 3 and 4 hr, 25 μL aliquots of the reaction mixture were transferred to plates containing 225 μl of IS/Q quenching solution. After quenching, the plates were centrifuged at 3000×g for 30 minutes, and 150 μL supernatant was diluted with 150 μL water. Aliquots (10 μL) of the diluted supernatant were analyzed on a Thermo Q-Exactive mass spectrometer as described below. Quantification of test compounds and controls was performed by analyte/internal standard peak area ratio (PAR) values measured on a Thermo Q-Exactive mass spectrometer coupled to a Dionex UltiMate 3000 HPLC with a Leap Technologies HTC PAL autosampler. The column used was a Thermo Hypersil GOLD (1.9 μm particle size, 2.1×50 mm). Mobile phase A consisted of […] formic acid in water. Mobile phase B consisted of 0.1% (v/v) formic acid in acetonitrile. Elution of analytes was achieved by a series of linear gradients of acetonitrile in water containing 0.1% (v/v) formic acid. The mass spectrometer was calibrated on a weekly basis and mass tolerance of 5 ppm was used.

[3] = tested on: SARS Coronavirus 2 recombinant with NanoLuc (SARS-CoV2-NLuc); test: organism not typed; format: cell-based; settings: 48 h
in vitro [4] = format: cell-based; settings: human
Procedure: Cytotoxicity of the compounds was determined in uninfected cells using the cell viability reagent in a similar fashion as described before for other cell types (Cihlar et al., Antimicrob Agents Chemother. 2008, 52(2):655-65). HEp-2 (1.5×10^3 cells/well) and MT-4 (2×10^3 cells/well) cells were plated in 384-well plates and incubated with the appropriate medium containing 3-fold serially diluted compound ranging from 15 nM to 100,000 nM. Cells were cultured for 4-5 days at 37° C. Following the incubation, the cells were allowed to equilibrate to 25° C., and cell viability was determined by adding Cell-Titer Glo viability reagent. The mixture was incubated for 10 min, and the luminescence signal was quantified using an Envision plate reader. Untreated cell and cells treated at 2 μM puromycin (Sigma, St. Louis, MO) serve as […] cell viability control, respectively. The percent of cell viability was calculated for each tested compound concentration relative to the 0% and 100% controls and the CC50 value was determined by non-linear regression as a compound concentration reducing the cell viability by […].

[5] = tested on: Respiratory syncytial virus recombinant with luciferase (RSV-Luc5); test: microbe, parasite or virus in culture; format: cell-based; settings: human respiratory syncytial virus, NHBE, 72 h, read-out: RSV NHBE EC50 (nM)
in vitro [6] = format: in vitro ADME; settings: human, s9, pH 7.4
Procedure: Duplicate aliquots of test compound or positive control substrate (GS-7340) were added to PMSF-free Intestinal S9 fractions diluted with 100 mM phosphate buffered saline, pH 7.4, to obtain a protein concentration of 1.0 mg/mL. The S9 metabolic reactions were initiated by the addition of the substrates to the S9 reaction mixture to a final concentration of 2 μM. At 0, 10, 20, 30, 60 and 120 min, 25 μL aliquots of the reaction mixture were transferred to plates containing 225 μl of IS/Q solution. After quenching, the plates were centrifuged at 3000×g for 30 minutes, and 150 μL aliquots of each supernatant were diluted with 150 μL water. Aliquots (10 μL) of the diluted supernatant were analyzed on a Thermo Q-Exactive mass spectrometer as described below. Quantification of test compounds and controls was performed by analyte/internal standard peak area ratio (PAR) values measured on a Thermo Q-Exactive mass spectrometer coupled to a Dionex UltiMate 3000 HPLC with a Leap Technologies HTC PAL autosampler. The column used was a Thermo Hypersil GOLD (1.9 μm particle size, 2.1×50 mm). Mobile phase A consisted of […] formic acid in water. Mobile phase B consisted of 0.1% (v/v) formic acid in acetonitrile. Elution of analytes was achieved by a series of linear gradients of acetonitrile in water containing 0.1% (v/v) formic acid. The mass spectrometer was calibrated on a weekly basis and mass tolerance of 5 ppm was used.

in vitro [7] = format: in vitro ADME; settings: human, s9, pH 7.4; remark: listed apart in the source
Procedure: Duplicate aliquots of test compound or positive control substrate (GS-7340) were added to S9 stock diluted with 100 mM potassium phosphate buffer, pH 7.4, to obtain a protein concentration of 2.4 mg/mL. The S9 metabolic reactions were initiated by the addition of the substrates to the S9 reaction mixture to a final concentration of 2 μM. At 2, 12, 25, 45, 65 and 90 min, 25 μL aliquots of the reaction mixture were transferred to plates containing 225 μl of IS/Q solution. After quenching, the plates were centrifuged at 3000×g for 30 minutes, and 150 μL aliquots of each supernatant were diluted with 150 μL water. Aliquots (10 μL) of the diluted supernatant were analyzed on a Thermo Q-Exactive mass spectrometer as described below. Quantification of test compounds and controls was performed by analyte/internal standard peak area ratio (PAR) values measured on a Thermo Q-Exactive mass spectrometer coupled to a Dionex UltiMate 3000 HPLC with a Leap Technologies HTC PAL autosampler. The column used was a Thermo Hypersil GOLD (1.9 μm particle size, 2.1×50 mm). Mobile phase A consisted of […] formic acid in water. Mobile phase B consisted of 0.1% (v/v) formic acid in acetonitrile. Elution of analytes was achieved by a series of linear gradients of acetonitrile in water containing 0.1% (v/v) formic acid. The mass spectrometer was calibrated on a weekly basis and mass tolerance of 5 ppm was used.
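For CC50 in this document: uninfected MT-4 cells over 4-5 days by CellTiter-Glo.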

SMILES	DM Caco2 A to B [1]	DM Caco2 B to A [1]	solubility thermodynamic at 24 h (physchem) [µg/mL]	STA Human Plasma 37 [2]	EC50 [3] [µM]	CC50 (in vitro [4]) [µM]	EC50 [5] [nM]	half-life at 2 μM (in vitro [6]) [h]	half-life at 2 μM (in vitro [7]) [h]
COC(=O)c1cn(C(=O)OC[C@H]2O[C@@](C#N)(c3ccc4c(N)ncnn34)[C@H](O)[C@@H]2O)c2ccccc12 [Compound 1, O1-[[(2R,3S,4R,5R)-5-(4-aminopyrrolo[2,1-f][1,2,4]triazin-7-yl)-5-cyano-3,4-dihydroxy-tetrahydrofuran-2-yl]methyl]O3-methyl indole-1,3-dicarboxylate]	0.69	12.34	100 (≈ 203 µM)	645.34	4.73	> 50	5590	2.05	
N#C[C@@]1(c2ccc3c(N)ncnn23)O[C@H](COC(=O)n2cc(C(=O)OC3CCOCC3)c3ccccc32)[C@@H](O)[C@H]1O [Compound 2, O1-[[(2R,3S,4R,5R)-5-(4-aminopyrrolo[2,1-f][1,2,4]triazin-7-yl)-5-cyano-3,4-dihydroxy-tetrahydrofuran-2-yl]methyl]O3-tetrahydropyran-4-yl indole-1,3-dicarboxylate]	0.33	13.49	140 (≈ 249 µM)	1055.4	5.52	> 50	14100	7.93	
N#C[C@@]1(c2ccc3c(N)ncnn23)O[C@H](COC(=O)N2CCCCC2)[C@@H](O)[C@H]1O [Compound 13, [(2R,3S,4R,5R)-5-(4-aminopyrrolo[2,1-f][1,2,4]triazin-7-yl)-5-cyano-3,4-dihydroxy-tetrahydrofuran-2-yl]methyl piperidine-1-carboxylate]	0.3	6.39	4480 (≈ 11100 µM)	1584	> 50	> 50	> 50000	≥ 13.2	≥ 9.87
CC(C)NC(=O)OC[C@H]1O[C@@](C#N)(c2ccc3c(N)ncnn23)[C@H](O)[C@@H]1O [Compound 8, [(2R,3S,4R,5R)-5-(4-aminopyrrolo[2,1-f][1,2,4]triazin-7-yl)-5-cyano-3,4-dihydroxy-tetrahydrofuran-2-yl]methyl N-isopropylcarbamate]	0.11	0.79	> 13000		31.9	> 50	> 50000	13.1	≥ 9.87
CC(=O)O[C@H]1[C@@H](OC(C)=O)[C@](C#N)(c2ccc3c(N)ncnn23)O[C@@H]1COC(=O)N1CCCCC1 [Compound 21, [(2R,3R,4R,5R)-3,4-diacetoxy-5-(4-aminopyrrolo[2,1-f][1,2,4]triazin-7-yl)-5-cyano-tetrahydrofuran-2-yl]methyl piperidine-1-carboxylate]	3.99	19.68	370 (≈ 761 µM)	11.334	> 50	> 50	> 50000	0.0112	≤ 0.0333
CC(=O)O[C@H]1[C@@H](OC(C)=O)[C@](C#N)(c2ccc3c(N)ncnn23)O[C@@H]1COC(=O)N1CCCCCCC1 [Compound 19, [(2R,3R,4R,5R)-3,4-diacetoxy-5-(4-aminopyrrolo[2,1-f][1,2,4]triazin-7-yl)-5-cyano-tetrahydrofuran-2-yl]methyl azocane-1-carboxylate]	6.33	13.32	110 (≈ 214 µM)	14.703	31.5	> 50	18000	0.0127	≤ 0.0333
N#C[C@@]1(c2ccc3c(N)ncnn23)O[C@H](COC(=O)N2CCCCCCC2)[C@@H](O)[C@H]1O [Compound 9, [(2R,3S,4R,5R)-5-(4-aminopyrrolo[2,1-f][1,2,4]triazin-7-yl)-5-cyano-3,4-dihydroxy-tetrahydrofuran-2-yl]methyl azocane-1-carboxylate]	0.47	6.67		1584	> 50	> 50	10300	6.67	8.76
